We go through 27 molecules from patent US8961937B2 (Korea Atomic Energy Research Institute, priority 2012, dated 2015).

The target in series [1] is T1, Aβ40 aggregates (Homo sapiens, UniProt P05067).
T1 construct: agglomerated Aβ40 peptide (10 μM, 35° C., agglomerated in PBS buffer for 3 days.)
Nature of the series: In vitro fluorescence measurement before and after mixing with agglomerated Aβ40 peptide. The conditions noted are these: for λem: emission wavelength; for λem / λex: 10 μM in PBS; for λex: excitation wavelength; for Fold Increase (FAβ/F0): fluorescence emission intensity at λem, 10 μM compound and 10 μM Aβ40 aggregates. The format is binding.

In series [2] the target is T1, Aβ40 aggregates. The experiment in a line: Apparent binding constant (Kd) by fluorescence titration with aggregated Aβ40 peptide. Particulars: 10 μM aggregated Aβ40 peptide, PBS, N = 3; read-out: Kd (mean ± SD). As for the experimental part: Apparent binding constants (Kd) of the nine compounds were measured by using 10 μM aggregated Aβ40 peptide. Fluorescence intensity of respective probes of […], 0.5, 1, […], 5, and 10 μM dissolved in PBS and fluorescence intensity of a mixture with aggregates Aβ peptide were measured. […] Theoretically, a preferable fluorescence probe for Aβ aggregates should have high fluorescence reactivity and binding affinity.

T1 sequence (P05067 672-711 limits assumed): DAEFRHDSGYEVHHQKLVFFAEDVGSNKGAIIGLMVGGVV

`O=c1c(Cl)c(Cl)cnn1/C=C/c1ccc(/C=C/c2ccccc2)cc1` [Compound 13, 4,5-dichloro-2-((E)-4-(E)-styrylstyryl)pyridazine-3(2H)-one]: at Aβ40 aggregates [1], the λem was found to be 510 nm, the λex worked out at 380 nm and the “Fold Increase (FAβ/F0)” value is listed as 2.04.

Turning to `O=c1c(Cl)c(Cl)cnn1/C=C/c1cccc([N+](=O)[O-])c1` [Compound 9, (E)-4,5-dichloro-2-(3-nitrostyryl)pyridazine-3(2H)-one], on Aβ40 aggregates [1], the λem turned out to be 485 nm, the λex came out at 390 nm and the “Fold Increase (FAβ/F0)” value was 2.12.

As for `COc1cccc(OC)c1/C=C/n1ncc(Cl)c(Cl)c1=O` [Compound 22, (E)-4,5-dichloro-2-(2,6-dimethoxystyryl)pyridazine-3(2H)-one], at Aβ40 aggregates [1], the λem is 545 nm, the λex amounted to 350 nm and the “Fold Increase (FAβ/F0)” value stood at 4.53.

Turning to `COc1ccc(/C=C/n2ncc(Cl)c(Cl)c2=O)cc1` [Compound 18, (E)-4,5-dichloro-2-(4-methoxystyryl)pyridazine-3(2H)-one], at Aβ40 aggregates [1], the λem was 532 nm, the λex came to 400 nm and the “Fold Increase (FAβ/F0)” value is listed as 19.81. In addition, the Kd on Aβ40 aggregates [2] is 2.57 ± 0.54 µM.

In the case of `COc1cc(OC)c(OC)cc1/C=C/n1ncc(Cl)c(Cl)c1=O` [Compound 26, (E)-4,5-dichloro-2-(2,4,5-trimethoxystyryl)pyridazine-3(2H)-one], on Aβ40 aggregates [1], the λem is reported as 542 nm, the λex was 350 nm and the “Fold Increase (FAβ/F0)” value is given as 3.95.

As to `N#Cc1ccc(/C=C/n2ncc(Cl)c(Cl)c2=O)cc1` [Compound 6, (E)-2-(4-cyanostyryl)-4,5-dichloropyridazine-3(2H)-one], at Aβ40 aggregates [1], the λem worked out at 486 nm, the λex stood at 380 nm and the “Fold Increase (FAβ/F0)” value amounted to 2.94.

Consider `COc1cc(OC)c(/C=C/n2ncc(Cl)c(Cl)c2=O)c(OC)c1` [Compound 27, (E)-4,5-dichloro-2-(2,4,6-trimethoxystyryl)pyridazine-3(2H)-one], for which, at Aβ40 aggregates [1], the λem was 560 nm, the λex is 430 nm and the “Fold Increase (FAβ/F0)” value is recorded as 11.72. The Kd on Aβ40 aggregates [2] came out at 17.5 ± 2.49 µM.

For the molecule `Cc1ccc(/C=C/n2ncc(Cl)c(Cl)c2=O)cc1` [Compound 11, (E)-4,5-dichloro-2-(4-methylstyryl)pyridazine-3(2H)-one], on Aβ40 aggregates [1], the λem is 516 nm, the λex worked out at 350 nm and the “Fold Increase (FAβ/F0)” value is on record as 2.81.

Consider `COc1cccc(/C=C/n2ncc(Cl)c(Cl)c2=O)c1OC` [Compound 19, (E)-4,5-dichloro-2-(2,3-dimethoxystyryl)pyridazine-3(2H)-one], for which, on Aβ40 aggregates [1], the λem was determined as 504 nm, the λex was 350 nm and the “Fold Increase (FAβ/F0)” value amounted to 15.35. Also, the Kd at Aβ40 aggregates [2] stood at 8.52 ± 2.48 µM.

In the case of `O=c1c(Cl)c(Cl)cnn1/C=C/c1ccccc1` [Compound 1, trans-4,5-dichloro-2-styrylpyridazine-3(2H)-one], at Aβ40 aggregates [1], the λem is given as 496 nm, the λex was 350 nm and the “Fold Increase (FAβ/F0)” value amounted to 4.72.

In the case of `COc1ccc(OC)c(/C=C/n2ncc(Cl)c(Cl)c2=O)c1` [Compound 21, (E)-4,5-dichloro-2-(2,5-dimethoxystyryl)pyridazine-3(2H)-one], on Aβ40 aggregates [1], the λem came out at 512 nm, the λex worked out at 370 nm and the “Fold Increase (FAβ/F0)” value is 3.42.

In the case of `O=c1c(Cl)c(Cl)cnn1/C=C/c1ccc(-c2ccccc2)cc1` [Compound 12, (E)-2-(2-(biphenyl-4-yl)vinyl)-4,5-dichloropyridazine-3(2H)-one], on Aβ40 aggregates [1], the λem stood at 514 nm, the λex came to 380 nm and the “Fold Increase (FAβ/F0)” value came out at 1.92.

On to `Nc1ccc(/C=C/n2ncc(Cl)c(Cl)c2=O)cc1` [Compound 15, (E)-4,5-dichloro-2-(4-aminostyryl)pyridazine-3(2H)-one], for which, at Aβ40 aggregates [1], the λem is reported as 598 nm, the λex was determined as 400 nm and the “Fold Increase (FAβ/F0)” value stood at 12.15. Moreover, the Kd at Aβ40 aggregates [2] is 2.95 ± 1.15 µM.

`COc1ccc(/C=C/n2ncc(Cl)c(Cl)c2=O)c(OC)c1OC` [Compound 25, (E)-4,5-dichloro-2-(2,3,4-trimethoxystyryl)pyridazine-3(2H)-one]: on Aβ40 aggregates [1], the λem is recorded as 536 nm, the λex came out at 390 nm and the “Fold Increase (FAβ/F0)” value is 26.81. For the same molecule, the Kd at Aβ40 aggregates [2] stood at 4.24 ± 0.98 µM.

For the molecule `COc1ccc(/C=C/n2ncc(Cl)c(Cl)c2=O)cc1OC` [Compound 23, (E)-4,5-dichloro-2-(3,4-dimethoxystyryl)pyridazine-3(2H)-one], on Aβ40 aggregates [1], the λem amounted to 552 nm, the λex worked out at 350 nm and the “Fold Increase (FAβ/F0)” value worked out at 3.52.

Turning to `O=c1c(Cl)c(Cl)cnn1/C=C/c1ccc(Cl)cc1` [Compound 3, (E)-4,5-dichloro-2-(4-chlorostyryl)pyridazine-3(2H)-one], at Aβ40 aggregates [1], the λem was determined as 495 nm, the λex came out at 380 nm and the “Fold Increase (FAβ/F0)” value came to 3.03.

Regarding `COc1ccc(/C=C/n2ncc(Cl)c(Cl)c2=O)c(OC)c1` [Compound 20, (E)-4,5-dichloro-2-(2,4-dimethoxystyryl)pyridazine-3(2H)-one], at Aβ40 aggregates [1], the λem is reported as 554 nm, the λex was found to be 400 nm and the “Fold Increase (FAβ/F0)” value is given as 11.52. The Kd at Aβ40 aggregates [2] stood at 5.03 ± 3.48 µM.

In the case of `COc1cc(/C=C/n2ncc(Cl)c(Cl)c2=O)cc(OC)c1` [Compound 24, (E)-4,5-dichloro-2-(3,5-dimethoxystyryl)pyridazine-3(2H)-one], on Aβ40 aggregates [1], the λem was determined as 492 nm, the λex stood at 350 nm and the “Fold Increase (FAβ/F0)” value turned out to be 5.37.

`O=c1c(Cl)c(Cl)cnn1/C=C/c1ccc(F)cc1` [Compound 2, (E)-4,5-dichloro-2-(4-fluorostyryl)pyridazine-3(2H)-one]: on Aβ40 aggregates [1], the λem is recorded as 492 nm, the λex is 350 nm and the “Fold Increase (FAβ/F0)” value worked out at 5.93.

Take `O=c1c(Cl)c(Cl)cnn1/C=C/c1ccc(Br)cc1` [Compound 4, (E)-2-(4-bromostyryl)-4,5-dichloropyridazine-3(2H)-one]: on Aβ40 aggregates [1], the λem is listed as 495 nm, the λex turned out to be 370 nm and the “Fold Increase (FAβ/F0)” value amounted to 2.12.

With `COc1ccccc1/C=C/n1ncc(Cl)c(Cl)c1=O` [Compound 16, (E)-4,5-dichloro-2-(2-methoxystyryl)pyridazine-3(2H)-one], on Aβ40 aggregates [1], the λem came to 492 nm, the λex is reported as 380 nm and the “Fold Increase (FAβ/F0)” value is recorded as 8.24.

Turning to `COC(=O)c1ccc(/C=C/n2ncc(Cl)c(Cl)c2=O)cc1` [Compound 7, (E)-4,5-dichloro-2-(4-methoxycarbonylstyryl)pyridazine-3(2H)-one], at Aβ40 aggregates [1], the λem was 488 nm, the λex stood at 370 nm and the “Fold Increase (FAβ/F0)” value is 2.07.

Turning to `COc1cc(/C=C/n2ncc(Cl)c(Cl)c2=O)cc(OC)c1OC` [Compound 28], on Aβ40 aggregates [1], the λem was determined as 580 nm, the λex is recorded as 390 nm and the “Fold Increase (FAβ/F0)” value is recorded as 26.12. The Kd at Aβ40 aggregates [2] amounted to 4.14 ± 1.94 µM.

As for `O=c1c(Cl)c(Cl)cnn1/C=C/c1ccc(I)cc1` [Compound 5, (E)-4,5-dichloro-2-(4-Iodostyryl)pyridazine-3(2H)-one], at Aβ40 aggregates [1], the λem came out at 498 nm, the λex is 380 nm and the “Fold Increase (FAβ/F0)” value stood at 5.26.

For `O=c1c(Cl)c(Cl)cnn1/C=C/c1ccc([N+](=O)[O-])cc1` [Compound 10, (E)-4,5-dichloro-2-(4-nitrostyryl)pyridazine-3(2H)-one], on Aβ40 aggregates [1], the λem is 515 nm, the λex is recorded as 390 nm and the “Fold Increase (FAβ/F0)” value is 2.24.

For the molecule `O=c1c(Cl)c(Cl)cnn1/C=C/c1ccccc1[N+](=O)[O-]` [Compound 8, (E)-4,5-dichloro-2-(2-nitrostyryl)pyridazine-3(2H)-one], at Aβ40 aggregates [1], the λem stood at 500 nm, the λex amounted to 370 nm and the “Fold Increase (FAβ/F0)” value is listed as 4.12.

Turning to `COc1cccc(/C=C/n2ncc(Cl)c(Cl)c2=O)c1` [Compound 17, (E)-4,5-dichloro-2-(3-methoxystyryl)pyridazine-3(2H)-one], on Aβ40 aggregates [1], the λem amounted to 492 nm, the λex was 350 nm and the “Fold Increase (FAβ/F0)” value turned out to be 11.13. At Aβ40 aggregates [2], the Kd is 3.48 ± 1.14 µM.
